Counter-ions that a name gives are not always drawn.
Columns and labels:
[1] = Drug (paclitaxel) loading into NLPs, quantified by reverse phase HPLC after SEC purification; format: physicochemical; conditions: for amount of paclitaxel loaded into NLPs (mass of drug over total mass of particle components): NLPs prepared with the named lysophospholipid at 50 mol % content
Procedure: For NLP assemblies using DOPC as the membrane forming lipid with apoE422k, the total lipid-to-apoE422K molar ratio was 80:1. Briefly, lipids were either prepared or obtained in chloroform and aliquoted into glass vials. Chloroform was then removed using a stream of N2 under agitation to form a thin lipid film. Lipids were solubilized in PBS buffer (137 mM sodium chloride, 2.7 mM potassium chloride, 10 mM phosphate buffer, pH 7.4) using 30 mM sodium cholate. After addition of the apoE422k (150 μM in final assembly volume), samples were incubated at 23.8° C. for at least 2 hours.
Assemblies were dialyzed overnight against PBS to remove cholate. Samples were subsequently analyzed and purified by SEC (size exclusion chromatography) (Superdex 200, 10/300 GL column, GE Healthcare, Piscataway, N.J.) in PBS buffer (0.5 mL/min flow rate). The exclusion limit of the column was determined with Blue Dextran 2000. SEC fractions (500 μl) were collected every 60 s. SEC fractions containing homogeneous NLP populations were concentrated using 50 kDa MWCO spin concentrators (Sartorius). The apoE422k concentration was determined using NanoDrop (Thermo Scientific). The concentrated NLP samples were then stored at 4° C. until further use.
The solution was then spun down to remove any precipitate, and then the supernatant was purified by SEC (GE HiTrap desalting column) in PBS buffer (0.5 ml/min flow rate). The collected fractions containing NLP were then analyzed by reverse phase HPLC to quantify each component of the NLP.
The ability of the two NLP populations to accommodate the drug of interest, paclitaxel, was then assessed. Following addition of paclitaxel to the two solutions, the NLP solutions were re-purified to remove free paclitaxel. The solutions were then analyzed by reverse phase HPLC to assess the amount of paclitaxel that was incorporated into the particles.
Further experiments were carried out to assess the relationship between lysophospholipid content and paclitaxel loading. NLPs were prepared with initial lysophospholipid contents (lyso 14:0) between 0 and 70 mole percent (i.e. 0 mol %-70 mol %). After paclitaxel addition and subsequent purification, the composition of these particles was again analyzed using reverse phase HPLC.

[2] = pH 5, 7 or 9; cited from earlier work
[3] = compared with lyso 14:0, 16:0 and 18:0; cited from earlier work

SMILES: CCCCCCCCCCCCCC(=O)OC[C@@H](O)COP(=O)([O-])OCC[N+](C)(C)C [lyso 14:0, 1-tetradecanoyl-sn-glycero-3-phosphocholine]
- amount of paclitaxel loaded into NLPs (mass of drug over total mass of particle components) [1]: over 20%

SMILES: COc1cccc2c1C(=O)c1c(O)c3c(c(O)c1C2=O)C[C@@](O)(C(=O)CO)C[C@@H]3O[C@H]1C[C@H](N)[C@H](O)[C@H](C)O1 [doxorubicin hydrochloride]
- LogKow [2]: 3.5
- incorporation in NLPs ([1]; regardless of whether a lysophospholipid is used as part of the drug loading process): does not incorporate to a useful degree

SMILES: CC(=O)O[C@H]1C(=O)[C@@]2(C)[C@H]([C@H](OC(=O)c3ccccc3)[C@]3(O)C[C@H](OC(=O)[C@H](O)[C@@H](NC(=O)c4ccccc4)c4ccccc4)C(C)=C1C3(C)C)[C@]1(OC(C)=O)CO[C@@H]1C[C@@H]2O [paclitaxel]
- paclitaxel content in NLPs (mass of drug over total mass of particle components) ([1]; 10-20 mol % initial lysophospholipid (lyso 14:0)): approximately 5 % by mass
- paclitaxel loading in NLPs (mass of drug over total mass of particle components) ([1]; 30-60 mol % initial lysophospholipid (lyso 14:0)): 10-20%
- measured quantity of paclitaxel in NLPs ([1]; 30 mol % lysophospholipid group): about 0.23 micrograms
- paclitaxel loading in NLPs (mass of drug over total mass of particle components) ([1]; 70 mol % initial lysophospholipid (lyso 14:0)): > 30 % by mass
- measured quantity of paclitaxel in NLPs ([1]; 70 mol % lysophospholipid group): about 0.23 micrograms
- paclitaxel accepted by NLPs from second SEC peak versus larger particles from peak 1 ([1]; NLPs with 40 mol % initial lysophospholipid (lyso 14:0), two SEC populations): substantially more
- paclitaxel content in NLPs (mass of drug over total mass of particle components) ([1]; NLPs without lysophospholipids (0 mol % lyso 14:0), DOPC/apoE422k): 1-2 % by mass of the particle
- incorporation into NLP ([1]; when aided by lysophospholipid): capable of being incorporated into NLP to a useful mass percent

SMILES: CCCCCCCC/C=C\CCCCCCCC(=O)OC[C@@H](O)COP(=O)([O-])OCC[N+](C)(C)C [lyso 18:1, 1-(9Z-octadecenoyl)-sn-glycero-3-phosphocholine]
- aqueous solubility / CMC (in words) [3]: lowest solubility
- amount of paclitaxel loaded into NLPs (mass of drug over total mass of particle components) [1]: least amount
